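Method: 48-hour compound exposure of cells in 96-well plates, five concentrations, linear interpolation of endpoints. The concentration for 50% growth inhibition is given as GI50.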 Calls of active or inactive are those of the source. Cut-off read from the data, not from the text of the source: active = GI50 up to about 1.1 µM and inactive = higher.
Columns and labels:
Test in all cases: growth of human tumour cells (NCI), 48 h
[1] = tested on: RXF 393
[2] = tested on: A549
[3] = tested on: BT-549
[4] = tested on: SN12C
[5] = tested on: CCRF-CEM
[6] = tested on: NCI/ADR-RES
[7] = tested on: U-251
[8] = tested on: PC-3
[9] = tested on: SNB-19
[10] = tested on: M14
[11] = tested on: MDA-MB-435
[12] = tested on: MCF7
[13] = tested on: NCI-H522
[14] = tested on: NCI-H226
[15] = tested on: UACC-257
[16] = tested on: Malme-3M
[17] = tested on: NCI-H23
[18] = tested on: OVCAR-5
[19] = tested on: ACHN
[20] = tested on: T47D
[21] = tested on: TK-10
[22] = tested on: MOLT-4
[23] = tested on: EKVX
[24] = tested on: SF-268
[25] = tested on: UACC-62
[26] = tested on: CAKI-1
[27] = tested on: K562
[28] = tested on: SK-MEL-2
[29] = tested on: HT-29
[30] = tested on: A498
[31] = tested on: OVCAR-8
[32] = tested on: SF-539
[33] = tested on: SK-MEL-28
[34] = tested on: HOP-92
[35] = tested on: SNB-75
[36] = tested on: RPMI-8226
[37] = tested on: KM12
[38] = tested on: 786-0
[39] = tested on: HL-60
[40] = tested on: SK-OV-3
[41] = tested on: LOX IMVI
[42] = tested on: OVCAR-3
[43] = tested on: Hs-578T
[44] = tested on: DU-145
[45] = tested on: HOP-62
[46] = tested on: COLO 205
[47] = tested on: IGROV-1
[48] = tested on: MDA-MB-231
[49] = tested on: UO-31
[50] = tested on: OVCAR-4
[51] = tested on: HCT-15
[52] = tested on: SW-620
[53] = tested on: HCC 2998
[54] = tested on: SK-MEL-5
[55] = tested on: SF-295
[56] = tested on: HCT-116
[57] = tested on: SR
[58] = tested on: MDA-N
[59] = tested on: NCI-H460

With `Cn1ncc2c(Nc3cccc(Cl)c3)nc(Nc3cccc(Cl)c3)nc21` the GI50 [1] was 3.48 µM (inactive), the GI50 [2] was 8.11 µM (inactive) and the GI50 [3] was 21.8 µM (inactive). For the same compound, the GI50 [4] was 20.7 µM (inactive), the GI50 [5] was 1.15 µM (inactive) and the GI50 [6] was 9.71 µM (inactive). The GI50 [7] was 8.04 µM (inactive), the GI50 [8] was 8.24 µM (inactive) and the GI50 [9] was 19.1 µM (inactive). The GI50 [10] was 6.7 µM (inactive), the GI50 [11] was 10.9 µM (inactive) and the GI50 [12] was 4.68 µM (inactive). For the same compound, the GI50 [13] was 8.93 µM (inactive), the GI50 [14] was > 48.3 µM (inactive) and the GI50 [15] was 8.73 µM (inactive). The GI50 [16] was 17.6 µM (inactive), the GI50 [17] was 16.3 µM (inactive) and the GI50 [18] was 16.1 µM (inactive). The GI50 [19] was 10.5 µM (inactive), the GI50 [20] was 10.2 µM (inactive) and the GI50 [21] was 11.5 µM (inactive). The GI50 [22] was 4.68 µM (inactive), the GI50 [23] was 14.5 µM (inactive) and the GI50 [24] was 14.1 µM (inactive). The GI50 [25] was 13.7 µM (inactive), the GI50 [26] was 7.6 µM (inactive) and the GI50 [27] was 1.75 µM (inactive). For the same compound, the GI50 [28] was 14.9 µM (inactive), the GI50 [29] was 3.87 µM (inactive) and the GI50 [30] was 5.98 µM (inactive). For the same compound, the GI50 [31] was 10.9 µM (inactive), the GI50 [32] was 19.9 µM (inactive) and the GI50 [33] was 14.8 µM (inactive). For the same compound, the GI50 [34] was 10.9 µM (inactive), the GI50 [35] was 7.93 µM (inactive) and the GI50 [36] was 3.61 µM (inactive). The GI50 [37] was 4.9 µM (inactive), the GI50 [38] was 2.43 µM (inactive) and the GI50 [39] was 7.94 µM (inactive). For the same compound, the GI50 [40] was 20 µM (inactive), the GI50 [41] was 5.82 µM (inactive) and the GI50 [42] was 18.5 µM (inactive). For the same compound, the GI50 [43] was 12 µM (inactive), the GI50 [44] was 14.6 µM (inactive) and the GI50 [45] was 17.3 µM (inactive). For the same compound, the GI50 [46] was > 24.7 µM (inactive), the GI50 [47] was 12.2 µM (inactive) and the GI50 [48] was 16.7 µM (inactive). For the same compound, the GI50 [49] was 9.73 µM (inactive), the GI50 [50] was 11.9 µM (inactive) and the GI50 [51] was 4.43 µM. The GI50 [52] was 11.2 µM (inactive), the GI50 [53] was 8.93 µM (inactive) and the GI50 [54] was > 35.6 µM (inactive). The GI50 [55] was 5.47 µM (inactive) and the GI50 [56] was 11.4 µM (inactive).
With `CCC1(O)CN(CCOC)[C@H]2C[C@@H]1C(=O)c1[nH]c3ccccc3c12` (some centres not stated) the GI50 [1] was > 100 µM (inactive), the GI50 [2] was > 100 µM (inactive) and the GI50 [3] was > 100 µM (inactive). For the same compound, the GI50 [4] was > 100 µM (inactive), the GI50 [5] was > 100 µM (inactive) and the GI50 [6] was > 100 µM (inactive). For the same compound, the GI50 [7] was > 100 µM (inactive), the GI50 [8] was > 100 µM (inactive) and the GI50 [9] was > 100 µM (inactive). The GI50 [10] was > 100 µM (inactive), the GI50 [57] was > 100 µM (inactive) and the GI50 [11] was > 100 µM (inactive). The GI50 [12] was > 100 µM (inactive), the GI50 [13] was > 100 µM (inactive) and the GI50 [14] was > 100 µM (inactive). The GI50 [15] was > 100 µM (inactive), the GI50 [58] was > 100 µM (inactive) and the GI50 [16] was > 100 µM (inactive). For the same compound, the GI50 [17] was > 100 µM (inactive), the GI50 [18] was > 100 µM (inactive) and the GI50 [19] was > 100 µM (inactive). For the same compound, the GI50 [21] was > 100 µM (inactive), the GI50 [22] was > 100 µM (inactive) and the GI50 [23] was > 100 µM (inactive). For the same compound, the GI50 [24] was > 100 µM (inactive), the GI50 [26] was > 100 µM (inactive) and the GI50 [27] was > 100 µM (inactive). For the same compound, the GI50 [28] was > 100 µM (inactive), the GI50 [29] was > 100 µM (inactive) and the GI50 [30] was > 100 µM (inactive). The GI50 [31] was > 100 µM (inactive), the GI50 [32] was > 100 µM (inactive) and the GI50 [33] was > 100 µM (inactive). The GI50 [34] was > 100 µM (inactive), the GI50 [35] was > 100 µM (inactive) and the GI50 [36] was > 100 µM (inactive). The GI50 [37] was > 100 µM (inactive), the GI50 [38] was > 100 µM (inactive) and the GI50 [39] was > 100 µM (inactive). For the same compound, the GI50 [41] was > 100 µM (inactive), the GI50 [42] was > 100 µM (inactive) and the GI50 [43] was > 100 µM (inactive). The GI50 [44] was > 100 µM (inactive), the GI50 [45] was > 100 µM (inactive) and the GI50 [46] was > 100 µM (inactive). The GI50 [47] was > 100 µM (inactive), the GI50 [48] was > 100 µM (inactive) and the GI50 [49] was > 100 µM (inactive). For the same compound, the GI50 [50] was > 100 µM (inactive), the GI50 [59] was > 100 µM (inactive) and the GI50 [51] was greater than 100 µM. The GI50 [52] was > 100 µM (inactive), the GI50 [53] was > 100 µM (inactive) and the GI50 [54] was > 100 µM (inactive). For the same compound, the GI50 [55] was > 100 µM (inactive) and the GI50 [56] was > 100 µM (inactive).
